Publication PMC9611727, “Optimization of a Novel Mandelamide-Derived Pyrrolopyrimidine Series of PERK Inhibitors” (Pharmaceutics, 2022)

What was measured:
[1] = target: T1, FLT3 (Homo sapiens, UniProt P36888); assay: scanMAX kinase panel; type: binding; parameters: purchased DiscoverX scanMAX; conditions: read-out: % Control; for remaining binding at 1 µM: 1000 nM
T1 sequence (P36888 27-993): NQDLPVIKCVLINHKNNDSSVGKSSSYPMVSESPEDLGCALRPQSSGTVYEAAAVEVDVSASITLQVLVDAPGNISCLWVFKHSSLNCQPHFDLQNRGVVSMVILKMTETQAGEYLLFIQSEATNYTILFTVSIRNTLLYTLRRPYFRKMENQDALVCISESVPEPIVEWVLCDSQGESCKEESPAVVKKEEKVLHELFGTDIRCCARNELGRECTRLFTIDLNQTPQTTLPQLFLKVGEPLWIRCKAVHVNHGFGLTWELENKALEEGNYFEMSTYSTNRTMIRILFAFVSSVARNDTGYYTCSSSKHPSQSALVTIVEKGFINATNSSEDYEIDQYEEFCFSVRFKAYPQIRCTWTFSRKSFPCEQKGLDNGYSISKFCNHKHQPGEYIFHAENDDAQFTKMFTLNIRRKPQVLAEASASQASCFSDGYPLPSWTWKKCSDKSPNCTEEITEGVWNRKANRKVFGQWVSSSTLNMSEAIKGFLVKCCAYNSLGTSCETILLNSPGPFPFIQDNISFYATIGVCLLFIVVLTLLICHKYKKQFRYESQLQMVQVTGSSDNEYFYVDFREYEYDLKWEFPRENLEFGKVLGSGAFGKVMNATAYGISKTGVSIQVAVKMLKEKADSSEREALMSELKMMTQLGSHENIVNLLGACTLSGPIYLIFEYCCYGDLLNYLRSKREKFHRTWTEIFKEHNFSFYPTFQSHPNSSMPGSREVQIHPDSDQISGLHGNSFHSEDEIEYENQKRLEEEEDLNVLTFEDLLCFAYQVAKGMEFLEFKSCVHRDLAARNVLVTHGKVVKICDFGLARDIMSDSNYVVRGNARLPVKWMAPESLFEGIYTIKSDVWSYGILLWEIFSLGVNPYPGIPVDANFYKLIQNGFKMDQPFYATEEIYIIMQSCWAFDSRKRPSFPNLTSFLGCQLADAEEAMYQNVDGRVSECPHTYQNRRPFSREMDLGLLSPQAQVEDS
Excerpt: Supplemental Table S2. scanMAXSM Kinome Assay Results. Complete tabulated data of all 468 kinases from the panel, including
403 wild-type and 65 mutant isoforms. […] Cmpd 11 and Cmpd 24

[2] = target: T2, PERK (Homo sapiens, UniProt Q9NZJ5); assay: ISR kinase cell-free biochemical assay (Carna), PERK; conditions: ATP 8 µM
T2 construct: purchased Carna 05-155
T2 sequence (Q9NZJ5 563-1116 limits assumed): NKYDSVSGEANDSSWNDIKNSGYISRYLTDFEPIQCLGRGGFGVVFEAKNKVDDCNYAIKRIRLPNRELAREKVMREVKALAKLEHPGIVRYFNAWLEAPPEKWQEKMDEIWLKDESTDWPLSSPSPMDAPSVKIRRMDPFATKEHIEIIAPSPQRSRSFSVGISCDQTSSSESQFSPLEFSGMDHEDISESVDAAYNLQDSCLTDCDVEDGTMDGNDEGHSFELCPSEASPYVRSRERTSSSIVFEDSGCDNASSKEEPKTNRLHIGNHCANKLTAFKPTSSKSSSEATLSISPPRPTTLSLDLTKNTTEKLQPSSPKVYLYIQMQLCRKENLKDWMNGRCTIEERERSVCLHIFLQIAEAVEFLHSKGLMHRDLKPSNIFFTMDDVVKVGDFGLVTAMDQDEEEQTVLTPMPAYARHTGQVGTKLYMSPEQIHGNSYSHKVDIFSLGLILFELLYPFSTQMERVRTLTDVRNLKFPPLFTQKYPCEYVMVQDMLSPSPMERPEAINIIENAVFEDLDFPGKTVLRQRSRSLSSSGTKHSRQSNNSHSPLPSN
Procedure: (§1) In brief, 26 was dissolved in DMSO and serially diluted 3-fold to generate concentrations ranging from 10 µM to 0.2 nM in a 384-well plate using a TECAN EVO200 automated liquid handler. 10 nL stock solution was transferred into each well of a 384well assay plate by an Echo550 and an equivalent volume of DMSO was added to the control wells. To each assay well, recombinant protein was suspended in 20 µL reaction buffer (listed below) and incubated at 25 °C for 1.5 h while shaking at 1250 rpm. Following incubation, 10 µL of a FRET dilution buffer including 20 mM EDTA and 4 nM Tb-anti-peIF2a [pSer51] (Invitrogen, Cat# PV4815) was added to each well and incubated at 25 °C for 2 h while shaking at 600 rpm in the dark. Analysis was performed using an Envision Microplate Reader (PerkinElmer).

[3] = target: T3, PKR (Homo sapiens, UniProt P19525); assay: ISR kinase cell-free biochemical assay (Carna), PKR; conditions: ATP 6 µM
T3 construct: purchased Carna 05-156
T3 sequence (P19525 whole entry): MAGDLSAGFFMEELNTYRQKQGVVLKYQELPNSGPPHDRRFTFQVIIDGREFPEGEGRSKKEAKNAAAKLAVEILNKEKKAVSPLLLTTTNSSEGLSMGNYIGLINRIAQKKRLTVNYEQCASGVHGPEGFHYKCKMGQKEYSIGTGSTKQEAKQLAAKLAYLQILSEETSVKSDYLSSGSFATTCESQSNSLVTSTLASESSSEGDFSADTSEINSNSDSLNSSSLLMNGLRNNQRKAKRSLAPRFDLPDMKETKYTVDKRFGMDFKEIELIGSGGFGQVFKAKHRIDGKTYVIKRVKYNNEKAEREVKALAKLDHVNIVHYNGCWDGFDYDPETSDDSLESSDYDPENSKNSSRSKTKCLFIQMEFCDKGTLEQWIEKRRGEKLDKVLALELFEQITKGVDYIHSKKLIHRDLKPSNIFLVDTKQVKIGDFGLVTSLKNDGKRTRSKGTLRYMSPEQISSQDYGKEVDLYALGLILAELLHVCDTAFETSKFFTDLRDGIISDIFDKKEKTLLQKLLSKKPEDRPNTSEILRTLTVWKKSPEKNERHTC
Procedure: as §1

[4] = target: T1, FLT3; assay: Radiometric in vitro kinase activity assay, FLT3; type: biochemical; conditions: wild-type FLT3, radiometric, up to 10 μM
[5] = system: MOLM-16 (FLT3wt); assay: Cell viability assay, MOLM-16; type: cell-based; conditions: Homo sapiens, MOLM16
[6] = system: Kasumi-1 (FLT3wt); assay: Cell viability assay, Kasumi-1; type: cell-based; conditions: Homo sapiens
[7] = system: phosphoPERK (T980); assay: PERK autophosphorylation (pPERK/PERK) in mouse pancreas after oral dosing; type: in vivo; conditions: 30 mg/kg oral, 1 h
Procedure: (§2) For PK analysis of pyrrolopyrimidine analogs in mouse, rat, and dog plasma, the oral formulation was prepared as a solution containing 20% (w/v) Captisol in 25 mM NaH2PO4 buffer (pH 2). Compounds were administered orally by gavage at 10 mg/kg to female CD1 mice. After dosing, plasma samples were collected to characterize the PK profiles at 0.25, 0.5, 1, 2, 4, 8, 12 and 24 h post-dose. The plasma concentration of compound was determined by protein precipitation with acetonitrile and liquid chromatography with mass spectrometric detection (LC-MS/MS). Parameters were estimated using Phoenix (WinNonlin) pharmacokinetic software version 6.1.0 using a non-compartmental approach consistent with the oral route of administration. PK analysis of 26 in plasma and pancreas followed a similar analytical method as above, with minor modifications. Compound 26 was suspended in a vehicle consisting of 0.5% methylcellulose (400 cP) and 0.1% Tween80 in water and administered to BALB/c nude mice by oral gavage at 0.3, 1, 3, 10, 30 mg/kg. Plasma and pancreas were sampled from 5 mice per group following a single oral administration at 1, 4, 8, 12, 24 h post-dose.
Total protein was extracted from pancreas tissues sampled during PK studies described above. […]

[8] = PK of 26 in plasma and pancreas of BALB/c nude mice; type: in vivo, mouse; conditions: 0.3 to 30 mg/kg single oral gavage
Procedure: as §2

## Cc1cc(NC(=O)[C@H](O)c2cccc(F)c2)ccc1-c1cn(C)c2ncnc(N)c12 [Compound 11, (R)-N-(4-(4-amino-7-methyl-7H-pyrrolo[2,3-d]pyrimidin-5-yl)-3-methylphenyl)-2-(3-fluorophenyl)-2-hydroxy acetamide]
[1]
  remaining binding at 1 µM: 4.3%

## Cc1nc(N)c2c(-c3ccc(NC(=O)[C@H](O)c4cccc(F)c4)cc3C)cn(C)c2n1 [Compound 24]
[1]
  remaining binding at 1 µM: 66%

## Cc1nc(N)c2c(-c3ccc(NC(=O)[C@H](O)c4cccc(C(F)(F)F)c4)cc3C)cn(C)c2n1 [Compound 26]
[2]
  IC50: 0.0047 µM
[3]
  IC50: > 10 µM
[4]
  IC50: > 1 µM
[5]
  IC50: > 10 µM
[6]
  IC50: > 10 µM
[7]
  inhibition of pPERK/PERK in pancreas: approximately 80%
[8]
  exposure in plasma and pancreas: dose-proportionate exposure
[1]; 100 nM
  remaining binding at 0.1 µM: 41%
[1]
  remaining binding at 1 µM: 0%
